Tested on: PKC (mix of isoforms)
Assay: PKC assay (counter screen)
Format: biochemical
Details: myelin basic protein substrate, 10 μM ATP; read-out: Counter screens IC50 (μM) PKC
Method: Final assay concentrations were as follows: 0.25 mM EGTA, 0.4 mM CaCl, 20 mM Tris pH 7.5, 10 mM MgCl, 1 mM 2-mercaptoethanol, 0.32 mg/ml phosphatidylserine, 0.032 mg/ml diacylglycerol, 10 μM ^33P-ATP, 70 μg/ml MBP, 10 ng/ml PKC, 0.1 mg/ml BSA.
Assays are performed using 96 deep well assay plates. In each assay well 10 μl of solvent control or appropriate inhibitor dilution with 5 μl ^33P-ATP (components #5 and #3) were premixed. […] The liquid in the assay wells was thoroughly mixed and the assay reactions incubated for 20 minutes at room temperature. The reactions were stopped by adding 100 mM EDTA (50 μl) and 100 mM sodium pyrophosphate (50 μl) and mixing. Phosphorylated MBP was collected on PVDF membranes in 96 well filter plates and quantitated by scintillation counting.

Work on `CC(C)(N)c1ccc(-c2nc3ccccc3nc2-c2ccccc2)cc1` [Compound 1, 2-[4-(2-aminoprop-2-yl)phenyl]-3-phenylquinoxaline] yielded an IC50 of over 80 µM.

`Nc1ccc(-c2nc3ccccc3nc2-c2ccc(N)cc2)cc1` [Compound 2, 2,3-bis(4-aminophenyl)-quinoxaline] gave an IC50 of over 80 µM.
